Experimental data published in ChEMBL document CHEMBL1201861, “Genomics of Drug Sensitity in Cancer screening data, Wellcome Trust Sanger Institute”.
pIC50: −log10 of the molar value.

The compounds below were run on KS-1 (assay: cells). Conditions: Homo sapiens, KS-1.
Type: functional, cell-based, Homo sapiens
Description: SANGER: Inhibition of human KS-1 cell growth in a cell viability assay.
With `C=C(c1ccc(C(=O)O)cc1)c1cc2c(cc1C)C(C)(C)CCC2(C)C` [BEXAROTENE] the pIC50 was < 5.10.

What follows are compounds tested on IST-MES1 (assay: cells). Conditions: Homo sapiens, IST-MES1.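 Also: growth inhibition of IST-MES1 cells, measured with a cell viability assay.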
Type: functional, cell-based, Homo sapiens
Description: SANGER: Inhibition of human IST-MES1 cell growth in a cell viability assay.
`C=C(c1ccc(C(=O)O)cc1)c1cc2c(cc1C)C(C)(C)CCC2(C)C` [BEXAROTENE] was tested, and the pIC50 was < 5.10.

These compounds were tested on no-10 (assay: cells). Conditions: Homo sapiens.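 Also: growth inhibition of no-10 cells, read out with a cell viability assay.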
Type: functional, cell-based, Homo sapiens
Description: SANGER: Inhibition of human no-10 cell growth in a cell viability assay.
For `C=C(c1ccc(C(=O)O)cc1)c1cc2c(cc1C)C(C)(C)CCC2(C)C` [BEXAROTENE], the pIC50 was < 5.10.

Each compound was assayed on GI-1 (assay: cells). Conditions: Homo sapiens, GI-1.
Type: functional, cell-based, Homo sapiens
Description: SANGER: Inhibition of human GI-1 cell growth in a cell viability assay.
In the case of `C=C(c1ccc(C(=O)O)cc1)c1cc2c(cc1C)C(C)(C)CCC2(C)C` [BEXAROTENE], the pIC50 was < 5.10.

Each compound was assayed on SW 954 (assay: cells). Conditions: Homo sapiens, SW 954.
Type: functional, cell-based, Homo sapiens
Description: SANGER: Inhibition of human SW954 cell growth in a cell viability assay.
`C=C(c1ccc(C(=O)O)cc1)c1cc2c(cc1C)C(C)(C)CCC2(C)C` [BEXAROTENE] was tested, and the pIC50 was < 5.10.

These compounds were tested on NCI-H23 (assay: cells). Conditions: Homo sapiens, NCI-H23.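 Also: cell viability assay measuring growth inhibition of NCI-H23 cells.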
Type: functional, cell-based, Homo sapiens
Description: SANGER: Inhibition of human NCI-H23 cell growth in a cell viability assay.
In the case of `C=C(c1ccc(C(=O)O)cc1)c1cc2c(cc1C)C(C)(C)CCC2(C)C` [BEXAROTENE], the pIC50 was < 5.10.

What follows are compounds tested on MLMA (assay: cells). Conditions: Homo sapiens, MLMA.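 Also: growth inhibition of MLMA cells (human), determined through a cell viability readout.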
Type: functional, cell-based, Homo sapiens
Description: SANGER: Inhibition of human MLMA cell growth in a cell viability assay.
With `C=C(c1ccc(C(=O)O)cc1)c1cc2c(cc1C)C(C)(C)CCC2(C)C` [BEXAROTENE] the pIC50 was < 5.10.

What follows are compounds tested on MEG-01 (assay: cells). Conditions: Homo sapiens, MEG-01.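 Also: growth inhibition of MEG-01 cells, read out by a cell viability assay.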
Type: functional, cell-based, Homo sapiens
Description: SANGER: Inhibition of human MEG-01 cell growth in a cell viability assay.
For `C=C(c1ccc(C(=O)O)cc1)c1cc2c(cc1C)C(C)(C)CCC2(C)C` [BEXAROTENE], the pIC50 was < 5.10.

Each compound was assayed on K562 (assay: cells). Conditions: Homo sapiens, K562.
Type: functional, cell-based, Homo sapiens
Description: SANGER: Inhibition of human K-562 cell growth in a cell viability assay.
`C=C(c1ccc(C(=O)O)cc1)c1cc2c(cc1C)C(C)(C)CCC2(C)C` [BEXAROTENE] was tested, and the pIC50 was < 5.10.

These compounds were tested on NCI-H209 (assay: cells). Conditions: Homo sapiens, NCI-H209.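 Also: growth inhibition of human NCI-H209 cells, measured by a cell viability assay.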
Type: functional, cell-based, Homo sapiens
Description: SANGER: Inhibition of human NCI-H209 cell growth in a cell viability assay.
`C=C(c1ccc(C(=O)O)cc1)c1cc2c(cc1C)C(C)(C)CCC2(C)C` [BEXAROTENE] was tested, and the pIC50 was < 5.10.

The compounds below were run on KURAMOCHI (assay: cells). Conditions: Homo sapiens, KURAMOCHI.
Type: functional, cell-based, Homo sapiens
Description: SANGER: Inhibition of human KURAMOCHI cell growth in a cell viability assay.
For `C=C(c1ccc(C(=O)O)cc1)c1cc2c(cc1C)C(C)(C)CCC2(C)C` [BEXAROTENE], the pIC50 was < 5.10.

Each compound was assayed on NTERA-2-cl-D1 (assay: cells). Conditions: Homo sapiens, NTERA-2-cl-D1.
Type: functional, cell-based, Homo sapiens
Description: SANGER: Inhibition of human NTERA-S-cl-D1 cell growth in a cell viability assay.
For `C=C(c1ccc(C(=O)O)cc1)c1cc2c(cc1C)C(C)(C)CCC2(C)C` [BEXAROTENE], the pIC50 was < 5.10.

The compounds below were run on HL-60 (assay: cells). Conditions: Homo sapiens, HL-60.
Type: functional, cell-based, Homo sapiens
Description: SANGER: Inhibition of human HL-60 cell growth in a cell viability assay.
`C=C(c1ccc(C(=O)O)cc1)c1cc2c(cc1C)C(C)(C)CCC2(C)C` [BEXAROTENE] was tested, and the pIC50 was < 5.10.

These compounds were tested on A4-Fuk (assay: cells). Conditions: Homo sapiens, A4-Fuk.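 Also: growth inhibition of A4-Fuk cells, read out by a cell viability assay.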
Type: functional, cell-based, Homo sapiens
Description: SANGER: Inhibition of human A4-Fuk cell growth in a cell viability assay.
In the case of `C=C(c1ccc(C(=O)O)cc1)c1cc2c(cc1C)C(C)(C)CCC2(C)C` [BEXAROTENE], the pIC50 was < 5.10.

What follows are compounds tested on NCI-H1838 (assay: cells). Conditions: Homo sapiens, NCI-H1838.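 Also: growth inhibition of NCI-H1838 cells, determined with a cell viability readout.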
Type: functional, cell-based, Homo sapiens
Description: SANGER: Inhibition of human NCI-H1838 cell growth in a cell viability assay.
`C=C(c1ccc(C(=O)O)cc1)c1cc2c(cc1C)C(C)(C)CCC2(C)C` [BEXAROTENE] was tested, and the pIC50 was < 5.10.

What follows are compounds tested on RCC10RGB (assay: cells). Conditions: Homo sapiens, RCC10RGB.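 Also: growth inhibition of human RCC10RGB cells, read out by a cell viability assay.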
Type: functional, cell-based, Homo sapiens
Description: SANGER: Inhibition of human RCC10RGB cell growth in a cell viability assay.
For `C=C(c1ccc(C(=O)O)cc1)c1cc2c(cc1C)C(C)(C)CCC2(C)C` [BEXAROTENE], the pIC50 was < 5.10.

These compounds were tested on ES8 (assay: cells). Conditions: Homo sapiens, ES8.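 Also: growth inhibition of human ES8 cells, read out with a cell viability assay.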
Type: functional, cell-based, Homo sapiens
Description: SANGER: Inhibition of human ES8 cell growth in a cell viability assay.
For `C=C(c1ccc(C(=O)O)cc1)c1cc2c(cc1C)C(C)(C)CCC2(C)C` [BEXAROTENE], the pIC50 was < 5.10.

What follows are compounds tested on EKVX (assay: cells). Conditions: Homo sapiens, EKVX.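 Also: growth inhibition of human EKVX cells, read out with a cell viability assay.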
Type: functional, cell-based, Homo sapiens
Description: SANGER: Inhibition of human EKVX cell growth in a cell viability assay.
Work on `C=C(c1ccc(C(=O)O)cc1)c1cc2c(cc1C)C(C)(C)CCC2(C)C` [BEXAROTENE] yielded a pIC50 of 6.78.

These compounds were tested on LB2241-RCC (assay: cells). Conditions: Homo sapiens, LB2241-RCC.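 Also: cell viability assay measuring how strongly the cultured human renal carcinoma line is prevented from growing.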
Type: functional, cell-based, Homo sapiens
Description: SANGER: Inhibition of human LB2241-RCC cell growth in a cell viability assay.
In the case of `C=C(c1ccc(C(=O)O)cc1)c1cc2c(cc1C)C(C)(C)CCC2(C)C` [BEXAROTENE], the pIC50 was < 5.10.

Each compound was assayed on COR-L88 (assay: cells). Conditions: Homo sapiens, COR-L88.
Type: functional, cell-based, Homo sapiens
Description: SANGER: Inhibition of human COR-L88 cell growth in a cell viability assay.
For `C=C(c1ccc(C(=O)O)cc1)c1cc2c(cc1C)C(C)(C)CCC2(C)C` [BEXAROTENE], the pIC50 was < 5.10.

What follows are compounds tested on KM-H2 (assay: cells). Conditions: Homo sapiens, KM-H2.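 Also: growth inhibition of KM-H2 cells, read out by a cell viability assay.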
Type: functional, cell-based, Homo sapiens
Description: SANGER: Inhibition of human KM-H2 cell growth in a cell viability assay.
In the case of `C=C(c1ccc(C(=O)O)cc1)c1cc2c(cc1C)C(C)(C)CCC2(C)C` [BEXAROTENE], the pIC50 was < 5.10.

What follows are compounds tested on DJM-1 (assay: cells). Conditions: Homo sapiens, DJM-1.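 Also: growth inhibition of human DJM-1 cells, read out by a cell viability assay.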
Type: functional, cell-based, Homo sapiens
Description: SANGER: Inhibition of human DJM-1 cell growth in a cell viability assay.
In the case of `C=C(c1ccc(C(=O)O)cc1)c1cc2c(cc1C)C(C)(C)CCC2(C)C` [BEXAROTENE], the pIC50 was < 5.10.

Each compound was assayed on NCI-H1770 (assay: cells). Conditions: Homo sapiens, NCI-H1770.
Type: functional, cell-based, Homo sapiens
Description: SANGER: Inhibition of human NCI-H1770 cell growth in a cell viability assay.
`C=C(c1ccc(C(=O)O)cc1)c1cc2c(cc1C)C(C)(C)CCC2(C)C` [BEXAROTENE] was tested, and the pIC50 was < 5.10.

What follows are compounds tested on Mo (assay: cells). Conditions: Homo sapiens, Mo.
Type: functional, cell-based, Homo sapiens
Description: SANGER: Inhibition of human Mo-T cell growth in a cell viability assay.
With `C=C(c1ccc(C(=O)O)cc1)c1cc2c(cc1C)C(C)(C)CCC2(C)C` [BEXAROTENE] the pIC50 was < 5.10.

The compounds below were run on ES5 (assay: cells). Conditions: Homo sapiens, ES5.
Type: functional, cell-based, Homo sapiens
Description: SANGER: Inhibition of human ES5 cell growth in a cell viability assay.
For `C=C(c1ccc(C(=O)O)cc1)c1cc2c(cc1C)C(C)(C)CCC2(C)C` [BEXAROTENE], the pIC50 was < 5.10.

These compounds were tested on HD-MY-Z (assay: cells). Conditions: Homo sapiens, HD-MY-Z.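 Also: growth inhibition of HD-MY-Z cells, read out with a cell viability assay.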
Type: functional, cell-based, Homo sapiens
Description: SANGER: Inhibition of human HD-MY-Z cell growth in a cell viability assay.
`C=C(c1ccc(C(=O)O)cc1)c1cc2c(cc1C)C(C)(C)CCC2(C)C` [BEXAROTENE] was tested, and the pIC50 was < 5.10.

The compounds below were run on PSN1 (assay: cells). Conditions: Homo sapiens, PSN1.
Type: functional, cell-based, Homo sapiens
Description: SANGER: Inhibition of human PSN1 cell growth in a cell viability assay.
`C=C(c1ccc(C(=O)O)cc1)c1cc2c(cc1C)C(C)(C)CCC2(C)C` [BEXAROTENE] was tested, and the pIC50 was 5.40.

These compounds were tested on OS-RC-2 (assay: cells). Conditions: Homo sapiens, OS-RC-2.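 Also: growth inhibition of human OS-RC-2 cells, measured by a cell viability assay.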
Type: functional, cell-based, Homo sapiens
Description: SANGER: Inhibition of human OS-RC-2 cell growth in a cell viability assay.
With `C=C(c1ccc(C(=O)O)cc1)c1cc2c(cc1C)C(C)(C)CCC2(C)C` [BEXAROTENE] the pIC50 was < 5.10.

Each compound was assayed on RKO (assay: cells). Conditions: Homo sapiens, RKO.
Type: functional, cell-based, Homo sapiens
Description: SANGER: Inhibition of human RKO cell growth in a cell viability assay.
With `C=C(c1ccc(C(=O)O)cc1)c1cc2c(cc1C)C(C)(C)CCC2(C)C` [BEXAROTENE] the pIC50 was < 5.10.

Each compound was assayed on HCC1187 (assay: cells). Conditions: Homo sapiens, HCC1187.
Type: functional, cell-based, Homo sapiens
Description: SANGER: Inhibition of human HCC1187 cell growth in a cell viability assay.
In the case of `C=C(c1ccc(C(=O)O)cc1)c1cc2c(cc1C)C(C)(C)CCC2(C)C` [BEXAROTENE], the pIC50 was < 5.10.

What follows are compounds tested on HCE-4 (assay: cells). Conditions: Homo sapiens, HCE-4.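 Also: cell viability assay measuring inhibition of growth in the human HCE-4 cell line.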
Type: functional, cell-based, Homo sapiens
Description: SANGER: Inhibition of human HCE-4 cell growth in a cell viability assay.
In the case of `C=C(c1ccc(C(=O)O)cc1)c1cc2c(cc1C)C(C)(C)CCC2(C)C` [BEXAROTENE], the pIC50 was < 5.10.

Each compound was assayed on MMAC-SF (assay: cells). Conditions: Homo sapiens, MMAC-SF.
Type: functional, cell-based, Homo sapiens
Description: SANGER: Inhibition of human MMAC-SF cell growth in a cell viability assay.
`C=C(c1ccc(C(=O)O)cc1)c1cc2c(cc1C)C(C)(C)CCC2(C)C` [BEXAROTENE] was tested, and the pIC50 was < 5.10.

Each compound was assayed on MOLT-4 (assay: cells). Conditions: Homo sapiens, MOLT-4.
Type: functional, cell-based, Homo sapiens
Description: SANGER: Inhibition of human MOLT-4 cell growth in a cell viability assay.
In the case of `C=C(c1ccc(C(=O)O)cc1)c1cc2c(cc1C)C(C)(C)CCC2(C)C` [BEXAROTENE], the pIC50 was < 5.10.

The compounds below were run on SF-539 (assay: cells). Conditions: Homo sapiens, SF-539.
Type: functional, cell-based, Homo sapiens
Description: SANGER: Inhibition of human SF539 cell growth in a cell viability assay.
For `C=C(c1ccc(C(=O)O)cc1)c1cc2c(cc1C)C(C)(C)CCC2(C)C` [BEXAROTENE], the pIC50 was < 5.10.

Each compound was assayed on LU-139 (assay: cells). Conditions: Homo sapiens, LU-139.
Type: functional, cell-based, Homo sapiens
Description: SANGER: Inhibition of human LU-139 cell growth in a cell viability assay.
For `C=C(c1ccc(C(=O)O)cc1)c1cc2c(cc1C)C(C)(C)CCC2(C)C` [BEXAROTENE], the pIC50 was < 5.10.

What follows are compounds tested on CW-2 (assay: cells). Conditions: Homo sapiens, CW-2.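 Also: growth inhibition of CW-2 cells, read out by a cell viability assay.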
Type: functional, cell-based, Homo sapiens
Description: SANGER: Inhibition of human CW-2 cell growth in a cell viability assay.
`C=C(c1ccc(C(=O)O)cc1)c1cc2c(cc1C)C(C)(C)CCC2(C)C` [BEXAROTENE] was tested, and the pIC50 was < 5.10.

The compounds below were run on COLO-320-HSR (assay: cells). Conditions: Homo sapiens, COLO-320-HSR.
Type: functional, cell-based, Homo sapiens
Description: SANGER: Inhibition of human COLO-320-HSR cell growth in a cell viability assay.
In the case of `C=C(c1ccc(C(=O)O)cc1)c1cc2c(cc1C)C(C)(C)CCC2(C)C` [BEXAROTENE], the pIC50 was < 5.10.

What follows are compounds tested on A388 (assay: cells). Conditions: Homo sapiens, A388.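 Also: growth inhibition of human A388 cells, read out with a cell viability assay.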
Type: functional, cell-based, Homo sapiens
Description: SANGER: Inhibition of human A388 cell growth in a cell viability assay.
For `C=C(c1ccc(C(=O)O)cc1)c1cc2c(cc1C)C(C)(C)CCC2(C)C` [BEXAROTENE], the pIC50 was < 5.10.

These compounds were tested on KINGS-1 (assay: cells). Conditions: Homo sapiens, KINGS-1.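 Also: cell viability assay measuring suppression of KINGS-1 cell growth.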
Type: functional, cell-based, Homo sapiens
Description: SANGER: Inhibition of human KINGS-1 cell growth in a cell viability assay.
In the case of `C=C(c1ccc(C(=O)O)cc1)c1cc2c(cc1C)C(C)(C)CCC2(C)C` [BEXAROTENE], the pIC50 was < 5.10.

The compounds below were run on NOS-1 (assay: cells). Conditions: Homo sapiens, NOS-1.
Type: functional, cell-based, Homo sapiens
Description: SANGER: Inhibition of human NOS-1 cell growth in a cell viability assay.
With `C=C(c1ccc(C(=O)O)cc1)c1cc2c(cc1C)C(C)(C)CCC2(C)C` [BEXAROTENE] the pIC50 was 5.16.

The compounds below were run on LU-134-A (assay: cells). Conditions: Homo sapiens, LU-134-A.
Type: functional, cell-based, Homo sapiens
Description: SANGER: Inhibition of human LU-134-A cell growth in a cell viability assay.
For `C=C(c1ccc(C(=O)O)cc1)c1cc2c(cc1C)C(C)(C)CCC2(C)C` [BEXAROTENE], the pIC50 was < 5.10.

What follows are compounds tested on LB373-MEL-D (assay: cells). Conditions: Homo sapiens, LB373-MEL-D.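 Also: growth inhibition of the cell line, read out in a cell viability assay.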
Type: functional, cell-based, Homo sapiens
Description: SANGER: Inhibition of human LB373-MEL-D cell growth in a cell viability assay.
For `C=C(c1ccc(C(=O)O)cc1)c1cc2c(cc1C)C(C)(C)CCC2(C)C` [BEXAROTENE], the pIC50 was < 5.10.

What follows are compounds tested on TK-10 (assay: cells). Conditions: Homo sapiens, TK-10.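 Also: growth inhibition of TK-10 cells, read out in a cell viability assay.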
Type: functional, cell-based, Homo sapiens
Description: SANGER: Inhibition of human TK10 cell growth in a cell viability assay.
`C=C(c1ccc(C(=O)O)cc1)c1cc2c(cc1C)C(C)(C)CCC2(C)C` [BEXAROTENE] was tested, and the pIC50 was < 5.10.

What follows are compounds tested on EW-16 (assay: cells). Conditions: Homo sapiens, EW-16.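 Also: growth inhibition of human EW-16 cells, read out as cell viability.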
Type: functional, cell-based, Homo sapiens
Description: SANGER: Inhibition of human EW-16 cell growth in a cell viability assay.
`C=C(c1ccc(C(=O)O)cc1)c1cc2c(cc1C)C(C)(C)CCC2(C)C` [BEXAROTENE] was tested, and the pIC50 was < 5.10.

These compounds were tested on KG-1 (assay: cells). Conditions: Homo sapiens, KG-1.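 Also: growth inhibition of KG-1 cells, read out by a cell viability assay.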
Type: functional, cell-based, Homo sapiens
Description: SANGER: Inhibition of human KG-1 cell growth in a cell viability assay.
With `C=C(c1ccc(C(=O)O)cc1)c1cc2c(cc1C)C(C)(C)CCC2(C)C` [BEXAROTENE] the pIC50 was < 5.10.

These compounds were tested on SHP77 (assay: cells). Conditions: Homo sapiens, SHP77.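 Also: growth inhibition of human SHP-77 cells measured by a cell viability assay.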
Type: functional, cell-based, Homo sapiens, SHP-77
Description: SANGER: Inhibition of human SHP-77 cell growth in a cell viability assay.
`C=C(c1ccc(C(=O)O)cc1)c1cc2c(cc1C)C(C)(C)CCC2(C)C` [BEXAROTENE] was tested, and the pIC50 was < 5.10.

The compounds below were run on KE-37 (assay: cells). Conditions: Homo sapiens, KE-37.
Type: functional, cell-based, Homo sapiens
Description: SANGER: Inhibition of human KE-37 cell growth in a cell viability assay.
With `C=C(c1ccc(C(=O)O)cc1)c1cc2c(cc1C)C(C)(C)CCC2(C)C` [BEXAROTENE] the pIC50 was < 5.10.

These compounds were tested on NCI-H1155 (assay: cells). Conditions: Homo sapiens, NCI-H1155.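 Also: cell growth inhibition measured by a viability assay.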
Type: functional, cell-based, Homo sapiens
Description: SANGER: Inhibition of human NCI-H1155 cell growth in a cell viability assay.
`C=C(c1ccc(C(=O)O)cc1)c1cc2c(cc1C)C(C)(C)CCC2(C)C` [BEXAROTENE] was tested, and the pIC50 was < 5.10.

These compounds were tested on MC116 (assay: cells). Conditions: Homo sapiens, MC116.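 Also: growth inhibition of MC116 cells, read out with a cell viability assay.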
Type: functional, cell-based, Homo sapiens
Description: SANGER: Inhibition of human MC116 cell growth in a cell viability assay.
In the case of `C=C(c1ccc(C(=O)O)cc1)c1cc2c(cc1C)C(C)(C)CCC2(C)C` [BEXAROTENE], the pIC50 was < 5.10.
